Assay results from patent US8883963B2 (Cadila Healthcare Limited, priority 2007, dated 2014).
Starred links: 1 amine or outer side, 2 acyl side, 3 side chain; linkers in the order of their positions; H or OH if unused. Non-standard residues stand in square brackets, D forms with d. Residues, ends and D or L forms follow the SMILES beside them. ξ: configuration not given here. ξBip(2'-Et-4'-OMe) = CCc1cc(OC)ccc1-c1ccc(CC(N)C(=O)O)cc1; X1 = O=C(C(CCCc1ccc(C(F)(F)F)cc1F)N[*:1])[*:2]

How the values were obtained:
DPP IV = DPP IV (Homo sapiens, UniProt P27487); assay: Stability against DPP IV enzyme; assay type: in vitro ADME; conditions: 37° C.; for % degradation of peptidomimetics in 24 h when incubated with DPP-IV enzyme: 2 μM peptidomimetic; for half-life at 2 μM: DPP IV enzyme, pH 7.8, 2 μM peptidomimetic, read-out: half-life (t1/2) when incubated with DPP-IV enzyme
Description: (§1) Reactions were terminated by the addition of TFA/H2O (15 mL, 10% (v/v)). […] The column was equilibrated with TFA/H20, at a flow rate of 1 mL/min.

[1] = Stability in human plasma; assay type: in vitro ADME; conditions: 2 μM peptidomimetic, pooled human plasma, 37° C.; for half-life at 2 μM: pH 7.8, read-out: half-life (t1/2) when incubated with human plasma
Description: as §1

Human GLP-1 receptor = target: T1, Human GLP-1 receptor (Homo sapiens, UniProt P43220); assay: In vitro Human GLP-1 R agonist activity (cyclic AMP determination) in CHO/human GLP1R cells; assay type: cell-based
T1 construct: The full-length cDNA was cloned in pcDNA3.1(+); expressed in transfected cells

[2] = Stability in simulated intestinal fluid; assay type: in vitro ADME; conditions: 2 μM peptidomimetic, simulated intestinal fluid pH 7.5, 37° C.
Description: as §1

[3] = Stability in liver microsomes; assay type: in vitro ADME; conditions: 2 μM peptidomimetic, human liver microsomes, 37° C.; for half-life at 2 μM: pH 7.8, read-out: half-life (t1/2) when incubated with liver microsomes
Description: as §1

[4] = Stability in simulated gastric fluid; assay type: in vitro ADME; conditions: 2 μM peptidomimetic, simulated gastric fluid pH 1.5, 37° C.
Description: as §1

[5] = test system: RIN5F (Rat Insulinoma) cells; assay: In vitro glucose-dependent insulin secretion (RIN5F cell assay screening protocol); assay type: cell-based; conditions: 16.7 mM glucose load
human glucagon receptor = target: T2, human glucagon receptor (Homo sapiens, UniProt P47871); assay: In vitro human glucagon antagonist activity (inhibition of cAMP production) in CHO/human glucagon R cells; assay type: cell-based; conditions: with saturated concentration of glucagon peptide
T2 construct: The full-length cDNA was cloned in pcDNA3.1 (Invitrogen); expressed in transfected cells
T2 sequence (P47871 26-477): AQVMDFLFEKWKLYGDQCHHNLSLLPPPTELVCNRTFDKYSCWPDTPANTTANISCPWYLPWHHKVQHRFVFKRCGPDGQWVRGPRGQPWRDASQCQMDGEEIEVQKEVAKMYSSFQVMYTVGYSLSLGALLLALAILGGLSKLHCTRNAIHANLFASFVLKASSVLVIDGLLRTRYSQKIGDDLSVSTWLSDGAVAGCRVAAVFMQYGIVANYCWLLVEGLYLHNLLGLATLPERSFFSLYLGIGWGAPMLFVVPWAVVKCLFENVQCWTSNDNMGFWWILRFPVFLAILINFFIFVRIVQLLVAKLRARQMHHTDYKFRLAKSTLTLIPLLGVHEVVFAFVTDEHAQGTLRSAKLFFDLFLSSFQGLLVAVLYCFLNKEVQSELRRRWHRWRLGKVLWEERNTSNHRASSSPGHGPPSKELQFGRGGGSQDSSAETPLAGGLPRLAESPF

T1 sequence (P43220 24-463): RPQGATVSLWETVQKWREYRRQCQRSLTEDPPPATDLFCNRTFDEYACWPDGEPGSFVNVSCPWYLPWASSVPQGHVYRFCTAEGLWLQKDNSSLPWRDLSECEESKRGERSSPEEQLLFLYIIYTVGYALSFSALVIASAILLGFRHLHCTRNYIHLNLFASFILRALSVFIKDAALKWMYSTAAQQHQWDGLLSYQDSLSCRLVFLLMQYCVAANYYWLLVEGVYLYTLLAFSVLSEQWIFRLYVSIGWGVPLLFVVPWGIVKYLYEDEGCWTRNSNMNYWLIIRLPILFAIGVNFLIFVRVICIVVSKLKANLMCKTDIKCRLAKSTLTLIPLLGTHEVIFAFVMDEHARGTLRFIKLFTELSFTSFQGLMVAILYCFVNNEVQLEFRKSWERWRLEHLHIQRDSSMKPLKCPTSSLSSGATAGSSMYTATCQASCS
Chain of DPP IV (P27487 whole entry, species assumed): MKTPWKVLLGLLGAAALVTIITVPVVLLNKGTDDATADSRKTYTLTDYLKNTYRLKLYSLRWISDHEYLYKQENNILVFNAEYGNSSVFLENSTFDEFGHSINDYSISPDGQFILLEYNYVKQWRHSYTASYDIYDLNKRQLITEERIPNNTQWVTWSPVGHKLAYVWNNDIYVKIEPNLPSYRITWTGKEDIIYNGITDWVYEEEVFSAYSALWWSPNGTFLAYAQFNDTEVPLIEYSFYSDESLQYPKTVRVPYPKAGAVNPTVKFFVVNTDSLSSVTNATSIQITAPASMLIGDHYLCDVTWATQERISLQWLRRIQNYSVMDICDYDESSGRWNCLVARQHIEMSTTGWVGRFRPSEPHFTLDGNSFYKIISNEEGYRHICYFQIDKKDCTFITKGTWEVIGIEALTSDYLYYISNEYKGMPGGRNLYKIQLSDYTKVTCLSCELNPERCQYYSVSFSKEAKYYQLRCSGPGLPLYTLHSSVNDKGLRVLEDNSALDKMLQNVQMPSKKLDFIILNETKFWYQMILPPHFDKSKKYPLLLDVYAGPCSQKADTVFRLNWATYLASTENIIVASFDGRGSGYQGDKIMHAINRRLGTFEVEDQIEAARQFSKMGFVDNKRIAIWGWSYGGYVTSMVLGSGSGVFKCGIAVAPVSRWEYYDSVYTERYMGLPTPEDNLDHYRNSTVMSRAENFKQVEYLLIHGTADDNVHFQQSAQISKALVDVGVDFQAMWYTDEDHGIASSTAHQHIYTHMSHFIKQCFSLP

| Structure (SMILES) | % degradation of peptidomimetics in 24 h when incubated with DPP-IV enzyme (DPP IV) [%] | % degradation of peptidomimetics in 24 h when incubated with human plasma [1] [%] | Human GLP-1 R activity (cAMP release), % activity with respect to control (Human GLP-1 receptor; 1 nM test compound) [%] | Human GLP-1 R activity (cAMP release), % activity with respect to control (Human GLP-1 receptor; 10 nM test compound) [%] | Human GLP-1 R activity (cAMP release), % activity with respect to control (Human GLP-1 receptor; 100 nM test compound) [%] | Human GLP-1 R activity (cAMP release), % activity with respect to control (Human GLP-1 receptor; 1 μM test compound) [%] | Human GLP-1 R activity (cAMP release), % activity with respect to control (Human GLP-1 receptor; 10 μM test compound) [%] | % degradation of peptidomimetics in 24 h when incubated with simulated intestinal fluid [2] [%] | % degradation of peptidomimetics in 24 h when incubated with liver microsomes [3] [%] | half-life at 2 μM [3] [h] | % degradation of peptidomimetics in 24 h when incubated with simulated gastric fluid [4] [%] | Insulin secretion ([5]; 0.1 nM test compd.) [pg/µg/h] | Insulin secretion ([5]; 1 nM test compd.) [pg/µg/h] | Insulin secretion ([5]; 10 nM test compd.) [pg/µg/h] | half-life at 2 μM (DPP IV) [h] | half-life at 2 μM [1] [h] | half-life (t1/2) when incubated with simulated intestinal fluid [2] | half-life (t1/2) when incubated with simulated gastric fluid [4] | Human Glucagon receptor antagonistic activity shown as inhibition of cAMP production of Glucagon peptide (human glucagon receptor; 1 nM test compound) [pmol/ml/μg prt] | Human Glucagon receptor antagonistic activity shown as inhibition of cAMP production of Glucagon peptide (human glucagon receptor; 10 nM test compound) [pmol/ml/μg prt] | also measured |
| --- | --- | --- | --- | --- | --- | --- | --- | --- | --- | --- | --- | --- | --- | --- | --- | --- | --- | --- | --- | --- | --- |
| CCc1cc(OC)ccc1-c1ccc(CC(NC(=O)[C@H](CC(=O)O)NC(=O)[C@H](CO)NC(=O)[C@@H](NC(=O)[C@H](Cc2ccccc2)NC(=O)[C@@H](NC(=O)CNC(=O)C(CCC#N)NC(=O)C(C)(C)NC(=O)[C@@H](N)Cc2c[nH]cn2)[C@@H](C)O)[C@@H](C)O)C(=O)NC(CCCc2ccc(Cl)cc2C)C(N)=O)cc1 (single isomer, unassigned) [compound 32] | 75 | 77 | 39 ± 0.11 | 80 ± 0.09 | 88 ± 0.06 | 96 ± 0.14 | 99 ± 0.19 | 100 | 100 | 0.5 | 100 | 12.1 ± 0.52 | 14.1 ± 0.16 | 28.0 ± 0.36 | – | – | – | – | – | – | half-life (t1/2) when incubated with human plasma [1]: (9) h; half-life at 2 μM ([2]; read-out: half-life (t1/2) when incubated with simulated intestinal fluid): 0.5 h; half-life at 2 μM ([4]; read-out: half-life (t1/2) when incubated with simulated gastric fluid): 0.5 h |
| CCc1cc(OC)ccc1-c1ccc(CC(NC(=O)[C@H](CC(=O)O)NC(=O)[C@H](CO)NC(=O)[C@@H](NC(=O)[C@H](Cc2ccccc2)NC(=O)[C@@H](NC(=O)CNC(=O)[C@H](CCC(N)=O)NC(=O)[C@H](CO)NC(=O)[C@@H](N)Cc2c[nH]cn2)[C@@H](C)O)[C@@H](C)O)C(=O)NC(CCCc2ccccc2C(F)(F)F)C(N)=O)cc1 (single isomer, unassigned) [compound 47] | 76 | 78 | 55 ± 0.16 | 89 ± 0.05 | 93 ± 0.09 | 99 ± 0.02 | 99 ± 0.04 | 55 | 79 | 1 | 12 | 13.1 ± 0.11 | 14.9 ± 0.17 | 28.8 ± 0.44 | 9 | 8 | (6) h | (8) h | – | – | – |
| CCc1cc(OC)ccc1-c1ccc(CC(NC(=O)[C@H](CC(=O)O)NC(=O)[C@H](CO)NC(=O)[C@@H](NC(=O)[C@H](Cc2ccccc2)NC(=O)[C@@H](NC(=O)CNC(=O)[C@H](CCC(N)=O)NC(=O)[C@H](CO)NC(=O)[C@@H](N)Cc2c[nH]cn2)[C@@H](C)O)[C@@H](C)O)C(=O)NC(CCCc2ccccc2Cl)C(N)=O)cc1 (single isomer, unassigned) [compound 50] | 77 | 80 | 60 ± 0.12 | 92 ± 0.15 | 98 ± 0.18 | 99 ± 0.03 | 99 ± 0.09 | 50 | 82 | 1 | 13 | 15.4 ± 0.14 | 21.2 ± 0.18 | 35.6 ± 0.17 | 9 | 8 | (6) h | (8) h | – | – | – |
| CCc1cc(OC)ccc1-c1ccc(CC(NC(=O)[C@H](CC(=O)O)NC(=O)[C@H](CO)NC(=O)[C@@H](NC(=O)C(C)(Cc2ccccc2F)NC(=O)[C@@H](NC(=O)CNC(=O)C(CCC#N)NC(=O)C(C)(C)NC(=O)[C@@H](N)Cc2c[nH]cn2)[C@H](C)O)[C@H](C)O)C(=O)N(C)C(CCCc2ccccc2F)C(N)=O)cc1 (single isomer, unassigned) [compound 132] | 75 | 77 | – | – | – | – | – | 45 | 81 | 1 | 14 | 13.1 ± 0.11 | 14.9 ± 0.17 | 28.8 ± 0.44 | 9 | 8 | (6) h | (8) h | 15 ± 0.11 | 12 ± 0.13 | Human Glucagon receptor antagonistic activity shown as inhibition of cAMP production of Glucagon peptide (human glucagon receptor; 100 nM test compound): 8 ± 0.09 pmol/ml/μg prt; Human Glucagon receptor antagonistic activity shown as inhibition of cAMP production of Glucagon peptide (human glucagon receptor; 1 μM test compound): 4 ± 0.01 pmol/ml/μg prt; Human Glucagon receptor antagonistic activity shown as inhibition of cAMP production of Glucagon peptide (human glucagon receptor; 10 μM test compound): 2 ± 0.08 pmol/ml/μg prt |
| CCc1cc(OC)ccc1-c1ccc(CC(C(=O)N(C)C(CCCc2ccccc2)C(N)=O)N(C)C(=O)[C@H](CC(=O)O)NC(=O)[C@H](CO)NC(=O)[C@@H](NC(=O)C(C)(Cc2ccccc2F)NC(=O)[C@@H](NC(=O)CNC(=O)C(CCC#N)NC(=O)C(C)(C)NC(=O)[C@@H](N)Cc2c[nH]cn2)[C@H](C)O)[C@H](C)O)cc1 (single isomer, unassigned) [compound 142] | 77 | 80 | – | – | – | – | – | 50 | 82 | 1 | 13 | 12.9 ± 0.14 | 15.8 ± 0.13 | 29.9 ± 0.15 | 9 | 8 | (6) h | (8) h | 10 ± 0.03 | 8 ± 0.03 | Human Glucagon receptor antagonistic activity shown as inhibition of cAMP production of Glucagon peptide (human glucagon receptor; 100 nM test compound): 6 ± 0.22 pmol/ml/μg prt; Human Glucagon receptor antagonistic activity shown as inhibition of cAMP production of Glucagon peptide (human glucagon receptor; 1 μM test compound): 2 ± 0.13 pmol/ml/μg prt; Human Glucagon receptor antagonistic activity shown as inhibition of cAMP production of Glucagon peptide (human glucagon receptor; 10 μM test compound): 0 pmol/ml/μg prt |
| CCc1cc(OC)ccc1-c1ccc(CC(NC(=O)[C@H](CC(=O)O)NC(=O)[C@H](CO)NC(=O)[C@@H](NC(=O)[C@H](Cc2ccccc2)NC(=O)[C@@H](NC(=O)CNC(=O)[C@H](CCC(N)=O)NC(=O)[C@H](CO)NC(=O)[C@@H](N)Cc2c[nH]cn2)[C@@H](C)O)[C@@H](C)O)C(=O)NC(CCCc2ccc(C(F)(F)F)cc2F)C(N)=O)cc1 (some centres unmarked) [compound 49] (H-HSQGTFTSD[ξBip(2'-Et-4'-OMe)][X1]-NH2) | 75 | 77 | – | – | – | – | – | 45 | 81 | 1 | 14 | 16.1 ± 0.22 | 22.1 ± 0.26 | 36.0 ± 0.36 | 9 | 8 | (6) h | (8) h | 10 ± 0.03 | 8 ± 0.03 | Human Glucagon receptor antagonistic activity shown as inhibition of cAMP production of Glucagon peptide (human glucagon receptor; 100 nM test compound): 6 ± 0.22 pmol/ml/μg prt; Human Glucagon receptor antagonistic activity shown as inhibition of cAMP production of Glucagon peptide (human glucagon receptor; 1 μM test compound): 2 ± 0.13 pmol/ml/μg prt; Human Glucagon receptor antagonistic activity shown as inhibition of cAMP production of Glucagon peptide (human glucagon receptor; 10 μM test compound): 0 pmol/ml/μg prt |
